In assay [1] the target is T1, human α2-GABAA receptor (α2-GABAAR-HEK293 cells) (Homo sapiens, UniProt P18507+P47869).
T1 construct: expressed in transfected cells
Kind of assay: Whole-cell patch-clamp electrophysiology, positive allosteric modulatory activity on α2-GABAA receptor. Conditions: read-out: α2-GABAA positive allosteric modulatory activity. Type of assay: cell-based. An excerpt: (§1) α subunit, β subunit, and γ subunit are essential for the formation of a complete and functional GABAA receptor. In this example of the present disclosure, HEK293 cells stably expressing the human α1-GABAA receptor (α1-GABAAR) and α2-GABAA receptor (α2-GABAAR) were constructed and separately selected using the lipofection method (Felgner, P. L., et al. Proceedings of the National Academy of Sciences, 1987, 84: 7413-7417). The α1-GABAAR-HEK293 cell model simultaneously expressed the α1 subunit (for protein sequence, see GenBank accession No.: NM_000806.5), the […] (for protein sequence, see GenBank accession No.: NM_000814.5), and the […] (for protein sequence, see GenBank accession No.: NM_000816.3). The α2-GABAAR-HEK293 cell model simultaneously expressed the α2 subunit (for protein sequence, see GenBank accession No.: NM_000807.4), the β3 subunit (for protein sequence, see GenBank accession No.: NM_000814.5), and the γ2 subunit (for protein sequence, see GenBank accession No.: NM_000816.3).
(§2) The above cell lines were subcultured. The α2-GABAAR-HEK293 cells were expanded for testing the affinity of compounds to the benzodiazepine (BZD) site of the GABAA receptor. During the passage process, some of the α1-GABAAR-HEK293 cells and α2-GABAAR-HEK293 cells were suspended and plated on a slide pre-treated with Poly-D-Lysine for electrophysiological testing (method referenced from patent CN107344936A, paragraph 0586).
(§3) The positive regulatory activity of the test drugs on the α1-GABAA receptor and the α2-GABAA receptor was detected by the electrophysiological method. The specific method was as follows:
(§4) Compound concentration setting: The final concentration of the compounds used for screening was 100 nM. For cell lines expressing the α1-GABAA receptor, the concentration of GABA was 0.05 to 0.07 μM (approximately EC2-4). For cell lines expressing the α2-GABAA receptor, the concentration of GABA was 0.10 to 0.11 μM (approximately EC7-8). Electrophysiological testing was performed using the whole-cell patch-clamp technique, which can refer to the method reported in the literature (Nickolls, S. A., et al. British Journal of Pharmacology, 2018, 175: 708-725). The composition of the extracellular solution (ECS) for electrophysiology was as follows: 150 mM NaCl, 5 mM KCl, 2.5 mM CaCl2, 1 mM MgCl2, 10 mM HEPES, and 10 mM glucose (pH 7.4). The formulation of the intracellular solution (ICS) for electrophysiology was as follows: 140 mM CsCl, 11 mM EGTA, 10 mM HEPES, 2 mM CaCl2, 1 mM MgCl2, 4 mM MgATP, and 2 mM TEA (pH 7.3). GABA (γ-aminobutyric acid) powder was prepared into a mother liquor with pure water, which was then diluted in ECS. The compound was first prepared into a 4 mM mother liquor with dimethyl sulfoxide, which was then gradually diluted in the corresponding concentration of GABA-ECS. The solutions were freshly prepared prior to electrophysiological testing.
(§5) Electrophysiological signal acquisition was performed using an EPC 10 amplifier and PatchMaster software (HEKA) or an Axon 700B amplifier and Clampex software (AXON). The recording electrode was made through a drawing process using borosilicate glass, with an electrode resistance of 4 to 6 MΩ. Extracellular administration was performed using the ALA-VC-8PG™ system. A single, independently growing cell was selected. After the glass electrode formed a good seal with the cell, the membrane was ruptured to form the whole-cell configuration. The cell membrane potential was clamped at −60 mV and recorded in Gap-free mode. During the test, the extracellular solution was first applied extracellularly for approximately 20 seconds. After the baseline (Iprebaseline) stabilized, the extracellular solution was switched to GABA-ECS. At this point, the current induced by GABA (Igaba) could be detected. After approximately 10 to 20 seconds, when the current stabilized, the extracellular solution was switched to a mixture of the compound and GABA-ECS. […]

Assay [2] deals with T2, human α1-GABAA receptor (α1-GABAAR-HEK293 cells) (Homo sapiens, UniProt P14867+P18507).
T2 construct: expressed in transfected cells
As to the kind of experiment: Whole-cell patch-clamp electrophysiology, positive allosteric modulatory activity on α1-GABAA receptor. It counts as cell-based. Conditions: read-out: α1-GABAA positive allosteric modulatory activity.
Text: as §1, §2, §3, §4, §5

Assay [3] concerns the target T3, human α2-GABAA receptor (BZD site, membrane protein of HEK293 cells) (Homo sapiens, UniProt P18507+P47869).
T3 construct: expressed in transfected cells
As to the kind of experiment: Radioligand competitive binding assay (3H-flunitrazepam) at the BZD site of the α2-GABAA receptor.
Text: as §1, §2
The affinity of the compounds for the α2-GABAA receptor was determined by competing for the binding of ^3H-flunitrazepam (isotope ^3H-labelled flunitrazepam) to the BZD site on the membrane protein of HEK293 cells stably expressing the human α2-GABAAR.
Membrane preparation: Cells were suspended in 50 mM Tris-HCl buffer (pH=7.4), homogenized 10 times for 20 seconds with a homogenizer on ice, and centrifuged at 1000 g for 10 minutes at 4° C. The supernatant was taken, and the above steps were repeated. The supernatant was centrifuged at 4° C. (33800 g; Thermo, rotor: A27-8×50) for 60 minutes. The precipitate was resuspended in Tris buffer (50 mM Tris-HCl, 10 mM MgCl2, 0.5 mM EDTA, and 10% glycerol). The protein content was determined (BCA (bicinchoninic acid) protein quantification assay based on copper ion reduction, with a BCA kit purchased from Pierce (Annoron (Beijing) Biotechnology Co., Ltd.)), and 1 mL aliquots were prepared and stored at −80° C.
Radioligand competitive binding assay: This assay was performed in a 200 μL system (96-well plate) containing 100 μL of cell membrane. The concentration of ^3H-flunitrazepam was 1 nM, and the concentrations of the test compounds were in the range of […]. Flumazenil was used as a control. 1 μL of 2 mM flumazenil (final […]) was added to each low signal control (low control, LC) well, and 1 μL of dimethyl sulfoxide was added to each high signal control (high control, HC) well. The final concentration of target membrane protein was […]. All sample stock solutions of test compounds were 10 mM dimethyl sulfoxide solutions. All the samples were diluted to a concentration of 0.2 mM with dimethyl sulfoxide, and then subjected to a 4-fold serial dilution for a total of 8 working concentration gradients. The 96-well plate was sealed with a sealing membrane and then incubated on a shaker at room temperature for 1 hour. Meanwhile, a GF/C filter plate was soaked in plate soaking buffer (0.3% PEI (polyethyleneimine, purchased from Sigma-Aldrich, model: P314), stored at 4° C.) for at least 0.5 hours. After the binding incubation was completed, the cells were harvested onto the GF/C filter plate using a cell harvester and washed four times with plate washing buffer (50 mM Tris-HCl, pH 7.4, stored at 4° C.). After drying in an oven at 50° C. for 1 hour, the dried GF/C filter plate was bottom-sealed. The residual radioactivity on the filter membrane was detected by liquid scintillation counting.

Setting [4] is: competition with 1 nM 3H-flunitrazepam, Ki calculated from IC50, read-out: α2 Ki.

This is an account of results in US20260159519A1, “IMIDAZOPYRIDAZINE SUBSTITUTED BENZENE RING DERIVATIVE, PREPARATION METHOD, PHARMACEUTICAL COMPOSITION AND USE” (SHANGHAI SIMR BIOTECHNOLOGY CO., LTD., priority 2022, published 2026).

Where two headings read alike, the source gives them in different places.

Regarding `CCn1cnc2c(-c3ccc(F)c(-c4cc5c(cc4OC)N(CCN4CCCC4)C(=O)CO5)c3)cnnc21` [Example 17, 7-(5-(7-Ethyl-7H-imidazo[4,5-c]pyridazin-4-yl)-2-fluorophenyl)-6-methoxy-4-(2-(pyrrolidin-1-yl)ethyl)-2H-benzo[b][1,4]oxazin-3(4H)-one], the activation at 0.1 µM is 125% in assay [1] and 47% in assay [2]. This compound returned a Ki in assay [3] of 14.4 nM.
Turning to `CCn1cnc2c(-c3ccc(F)c(-c4cc5oc(C)nc5cc4OC)c3)cnnc21` [Example 133, 6-(5-(7-Ethyl-7H-imidazo[4,5-c]pyridazin-4-yl)-2-fluorophenyl)-5-methoxy-2-methylbenzo[d]oxazole], the activation at 0.1 µM in assay [1] worked out at 130%; in assay [2] it was 16%. In addition, the Ki in assay [3] (setting [4]) is 12.7 nM.
Take `CCn1cnc2c(-c3ccc(F)c(-c4cc5ccncc5cc4OC)c3)cnnc21` [Example 123, 6-(5-(7-Ethyl-7H-imidazo[4,5-c]pyridazin-4-yl)-2-fluorophenyl)-7-methoxyisoquinoline]: the activation at 0.1 µM in assay [1] came to 95%; in assay [2], 33%. The Ki in assay [3] (setting [4]) is 7.7 nM.
In the same order, the values of `CC[C@H]1Oc2cc(-c3cc(-c4cnnc5c4ncn5CC)ccc3F)c(OC)cc2N(C)C1=O` (single isomer, unassigned) [Example 8] are 130%, 79% and 4.76 nM.
Taken in the same sequence, the figures for `CCn1cnc2c(-c3ccc(F)c(-c4cc5cn(-c6nccn6C)nc5cc4OC)c3)cnnc21` [Example 78, 7-Ethyl-4-(4-fluoro-3-(6-methoxy-2-(1-methyl-1H-imidazol-2-yl)-2H-indazol-5-yl)phenyl)-7H-imidazo[4,5-c]pyridazine] were 110%, 10% and 3.91 nM.
In the case of `CCn1cnc2c(-c3ccc(F)c(-c4cc5cnn(C)c5cc4OC)c3)cnnc21` [Example 142, 7-Ethyl-4-(4-fluoro-3-(6-methoxy-1-methyl-1H-indazol-5-yl)phenyl)-7H-imidazo[4,5-c]pyridazine], the activation at 0.1 µM in assay [1] turned out to be 99%; in assay [2] it was 36%. In addition, the Ki in assay [3] (setting [4]) was 4.54 nM.
For `CCn1cnc2c(-c3ccc(F)c(-c4cc5cn(C6CCOC6)nc5cc4OC)c3)cnnc21` (stereo not drawn) [Example 122, 7-Ethyl-4-(4-fluoro-3-(6-methoxy-2-(tetrahydrofuran-3-yl)-2H-indazol-5-yl)phenyl)-7H-imidazo[4,5-c]pyridazine], the activation at 0.1 µM in assay [1] was determined as 125%; in assay [2] it was 39%. For the same compound, in assay [3] (setting [4]), the Ki was 4.76 nM.
In the same order, the values of `CCn1cnc2c(-c3ccc(F)c(-c4cc5c(cc4OC)ncn5C4COC4)c3)cnnc21` (single isomer, unassigned) [Example 135, 7-Ethyl-4-(4-fluoro-3-(5-methoxy-1-(oxetan-3-yl)-1H-benzo[d]imidazol-6-yl)phenyl)-7H-imidazo[4,5-c]pyridazine] are 142%, 68% and 28.2 nM.
Consider `CCn1cnc2c(-c3ccc(F)c(-c4cc5cn(-c6ccccc6)nc5cc4OC)c3)cnnc21` [Example 101, 7-Ethyl-4-(4-fluoro-3-(6-methoxy-2-phenyl-2H-indazol-5-yl)phenyl)-7H-imidazo[4,5-c]pyridazine], for which the figures for the activation at 0.1 µM in assay [1] and in assay [2] were 157% and 56%, respectively. Further, the Ki in assay [3] (setting [4]) was 4.46 nM.
As to `CCn1cnc2c(-c3ccc(F)c(-c4cc5c(cc4OC)N(CCN(C)C)C(=O)CO5)c3)cnnc21` [Example 22, 4-(2-(Dimethylamino)ethyl)-7-(5-(7-ethyl-7H-imidazo[4,5-c]pyridazin-4-yl)-2-fluorophenyl)-6-methoxy-2H-benzo[b][1,4]oxazin-3(4H)-one], the activation at 0.1 µM came out at 115% in assay [1] and 53% in assay [2]. In addition, in assay [3], the affinity, expressed as Ki, was 10 nM.
As for `CCn1cnc2c(-c3ccc(F)c(-c4cc5cn(C6CCN(C)CC6)nc5cc4OC)c3)cnnc21` [Example 99, 7-Ethyl-4-(4-fluoro-3-(6-methoxy-2-(1-methylpiperidin-4-yl)-2H-indazol-5-yl)phenyl)-7H-imidazo[4,5-c]pyridazine], the figures for the activation at 0.1 µM in assay [1] and in assay [2] were 106% and -2%, respectively. The Ki in assay [3] (setting [4]) is 4.31 nM.
Taken in the same sequence, the figures for `CCn1cnc2c(-c3ccc(F)c(-c4cc5cn([C@H]6CCN(C)C[C@@H]6F)nc5cc4OC)c3)cnnc21` (racemic) [Example 63, 7-Ethyl-4-(4-fluoro-3-(2-((3S,4S)-3-fluoro-1-methylpiperidin-4-yl)-6-methoxy-2H-indazol-5-yl)phenyl)-7H-imidazo[4,5-c]pyridazine] were 81%, 37% and 3.51 nM.
In the same order, the values of `CCn1cnc2c(-c3ccc(F)c(-c4cc5cn(C)nc5cc4OC)c3)cnnc21` [Example 141, 7-Ethyl-4-(4-fluoro-3-(6-methoxy-2-methyl-2H-indazol-5-yl)phenyl)-7H-imidazo[4,5-c]pyridazine] are 105%, 37% and 9.15 nM.
